# Assay results as given in patent US20040053915A1, “Use of stimulators of soluble guanylate cyclase for treating osteoporosis” (priority 2000, published 2004).
# Test system: rats of the strain HsdCpb:Wu
# Assay: Increased bone formation in rats after 4 weeks of once-daily administration via stomach tube
# Assay type: in vivo
# Conditions: once per day via stomach tube, male and female rats, all test animals
# Experimental: For a period of 4 weeks, one of the two compounds listed in Table 1 was administered, in each case in one of the concentrations given in Table 1, once per day via a stomach tube to 10 male and 10 female rats of the strain HsdCpb:Wu. […] Pathological endosteal or periosteal changes were not noticed.
Structure (SMILES),bone formation in the area of the spongioid bone proximally and distally to the epiphyseal arcus of the great tubular bones (50 mg/kg or more),bone formation in the area of the spongioid bone proximally and distally to the epiphyseal arcus of the great tubular bones (5 mg/kg or more)
Nc1nc(-c2nn(Cc3ccccc3F)c3ncccc23)ncc1C1CC1 [Compound 1],increased bone formation,–
Nc1nc(-c2nn(Cc3ccccc3F)c3ncccc23)nc(N)c1N1CCOCC1 [Compound 2],–,increased bone formation
